According to patent US6235891A, “Glucocorticoid receptor agonist and decreased PP5” (South Alabama Medical Science Foundation, priority 1999, dated 2001):

Tested on: serum/glucocorticoid inducible protein kinase (sgk) mRNA
Assay: Northern analysis of sgk mRNA
Format: cell-based, human
Conditions: 24 hours
Method: The cells were harvested, and total RNA was extracted with TRIzol® Reagent according to the methods of the manufacturer. Total RNA (20 μg) was fractionated on 1% agarose gels containing formaldehyde and transferred to DURLON-UV nylon membranes (Stratagene). Following UV cross-linking, the filters were hybridized with a [α^32 P]probe for human PP5. The human PP5 cDNA probe was generated from the full length coding region of PP5 and [α^32 P]-dATP was labeled with DECAprime® DNA Labeling Kit according to the manufacturer's protocol. […] Quantification of hybridization signals was achieved by analysis of the scanned autoradiograms using the NIH Image program (ImagePC).
The antiproliferative effect of dexamethasone correlates with the presence of wild type p53 and the expression of p21^Waf1/Cip1 mRNA. Referring to FIGS. 1A-1C, the effect of dexamethasone on cell proliferation in p53-defective T-24 human bladder carcinoma, p53-null TR9 human fibroblasts (Webster et al. 1993; Maiyar et al. 1996), and p53 wild-type A549 human lung carcinoma cells was determined by treating cells in log-phase growth with a single dose of 100 nM dexamethasone and counting the number of cells in treated (.cndot.) and untreated (.box-solid.) cultures for six consecutive days following treatment. […] After 24 hours total mRNA was prepared and analyzed for p21 and sgk mRNA levels by Northern analysis. […]

C[C@@H]1C[C@H]2[C@@H]3CCC4=CC(=O)C=C[C@]4(C)[C@@]3(F)[C@@H](O)C[C@]2(C)[C@@]1(O)C(=O)CO [dexamethasone, reference compound]
Expression of sgk (A549 cells, dexamethasone 0-100 nM): dose-dependent increase
Expression of sgk (all three cell lines (A549, T-24, TR9), 100 nM): induced the expression
